In PubChem BioAssay AID248 (DTP/NCI, 2004):
Toxic doses and inconclusive results are not listed. Cut-off read from the data, not from the text of the source: active = T/C of 150% or more; inactive = T/C below 125%.

Test system: L1210 leukemia ip in BDF1 mice, survival T/C
Test: NCI In Vivo Anticancer Drug Screen. Data for tumor model L1210 Leukemia (intraperitoneal) in B6D2F1 (BDF1) mice
Conditions: endpoint: mean survival time, higher = longer survival
Outline: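 Value reflects the ratio of survival in compound-treated mice to survival in vehicle-treated controls, with both groups carrying the same transplanted tumor.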

[1] = dose: 100.0 mg/kg/injection, schedule: Q01DX009 (ip), vehicle: saline sonified
[2] = dose: 100.0 mg/kg/injection, schedule: Q04DX003 (ip), vehicle: saline
[3] = dose: 200.0 mg/kg/injection, schedule: Q01DX009 (ip), vehicle: saline sonified
[4] = dose: 200.0 mg/kg/injection, schedule: Q04DX003 (ip), vehicle: saline
[5] = dose: 100.0 mg/kg/injection, schedule: Q01DX001 (ip), vehicle: saline
[6] = dose: 200.0 mg/kg/injection, schedule: Q01DX001 (ip), vehicle: saline
[7] = dose: 100.0 mg/kg/injection, schedule: Q04DX003 (ip), vehicle: Klucel (hydroxypropylcellulose) (HPC)
[8] = dose: 200.0 mg/kg/injection, schedule: Q04DX003 (ip), vehicle: Klucel (hydroxypropylcellulose) (HPC)
[9] = dose: 400.0 mg/kg/injection, schedule: Q04DX003 (ip), vehicle: Klucel (hydroxypropylcellulose) (HPC)
[10] = dose: 100.0 mg/kg/injection, schedule: Q04DX003 (ip), vehicle: saline with Tween-80
[11] = dose: 200.0 mg/kg/injection, schedule: Q04DX003 (ip), vehicle: saline with Tween-80
[12] = dose: 400.0 mg/kg/injection, schedule: Q04DX003 (ip), vehicle: saline with Tween-80

Measured: T/C

CCN(CC)CCn1c2ccccc2c2cc3cnccc3c(C)c21
inactive: dose: 18.75 mg/kg/injection, schedule: Q01DX009 (ip), vehicle: saline 109 % of control | dose: 37.5 mg/kg/injection, schedule: Q01DX009 (ip), vehicle: saline 109 % of control | dose: 37.5 mg/kg/injection, schedule: Q04DX003 (ip), vehicle: Klucel (hydroxypropylcellulose) (HPC) 106 % of control | dose: 75.0 mg/kg/injection, schedule: Q01DX009 (ip), vehicle: saline 114 % of control | dose: 75.0 mg/kg/injection, schedule: Q04DX003 (ip), vehicle: Klucel (hydroxypropylcellulose) (HPC) 105 % of control | dose: 150.0 mg/kg/injection, schedule: Q01DX009 (ip), vehicle: saline 89 % of control | dose: 150.0 mg/kg/injection, schedule: Q04DX003 (ip), vehicle: Klucel (hydroxypropylcellulose) (HPC) 87 % of control

C/C(CC(c1ccccc1)N1CCc2ccccc2C1)=N/O (centres undefined)
inactive: [1] 94 % of control | [2] 105 % of control | [3] 94 % of control | [4] 104 % of control | dose: 400.0 mg/kg/injection, schedule: Q01DX009 (ip), vehicle: saline sonified 90 % of control | dose: 400.0 mg/kg/injection, schedule: Q04DX003 (ip), vehicle: saline 112 % of control

O=[N+]([O-])Nc1ccc(C(c2ccc(N[N+](=O)[O-])cc2)c2ccc([N+](=O)[O-])cc2)cc1
inactive: dose: 100.0 mg/kg/injection, schedule: Q01DX005 (ip), vehicle: saline with Tween-80 89 % of control | dose: 100.0 mg/kg/injection, schedule: Q01DX009 (ip), vehicle: saline with Tween-80 100 % of control | dose: 200.0 mg/kg/injection, schedule: Q01DX005 (ip), vehicle: saline with Tween-80 100 % of control | dose: 200.0 mg/kg/injection, schedule: Q01DX009 (ip), vehicle: saline with Tween-80 92 % of control | dose: 400.0 mg/kg/injection, schedule: Q01DX005 (ip), vehicle: saline with Tween-80 89 % of control | dose: 400.0 mg/kg/injection, schedule: Q01DX009 (ip), vehicle: saline with Tween-80 94 % of control

CN(C)c1ccc(C=Nc2cc(Cl)ccc2O)cc1
inactive: [5] 107 % of control | [6] 100 % of control | dose: 400.0 mg/kg/injection, schedule: Q01DX001 (ip), vehicle: saline 100 % of control

CC1(C)C(=O)C(C)(C)C1O
inactive: dose: 50.0 mg/kg/injection, schedule: Q04DX003 (ip), vehicle: saline 95 % of control | dose: 75.0 mg/kg/injection, schedule: Q01DX001 (ip), vehicle: acetone 106 % of control | [5] 97 % of control | [2] 93 % of control | dose: 150.0 mg/kg/injection, schedule: Q01DX001 (ip), vehicle: acetone 104 % of control | [6] 111 % of control | [4] 87 % of control | dose: 300.0 mg/kg/injection, schedule: Q01DX001 (ip), vehicle: acetone 106 % of control

O=Cc1cc2cccnc2s1
inactive: [7] 103 % of control | [8] 100 % of control | [9] 100 % of control

CC(=O)c1ccc(S(=O)(=O)c2ccccc2)cc1
inactive: dose: 50.0 mg/kg/injection, schedule: Q01DX001 (ip), vehicle: carboxymethylcellulose (CMC) 93 % of control | dose: 100.0 mg/kg/injection, schedule: Q01DX001 (ip), vehicle: carboxymethylcellulose (CMC) 93 % of control | [10] 96 % of control | dose: 200.0 mg/kg/injection, schedule: Q01DX001 (ip), vehicle: carboxymethylcellulose (CMC) 101 % of control | [11] 91 % of control | dose: 400.0 mg/kg/injection, schedule: Q01DX001 (ip), vehicle: carboxymethylcellulose (CMC) 95 % of control | [12] 107 % of control

S=C1NC2(CCCCC2)C2=C(CCCC2)S1
inactive: [10] 100 % of control | [11] 88 % of control | [12] 96 % of control

O=C1NC(=O)c2ccc(Br)c3cccc1c23
inactive: dose: 100.0 mg/kg/injection, schedule: Q04DX002 (ip), vehicle: Klucel (hydroxypropylcellulose) (HPC) 96 % of control | dose: 200.0 mg/kg/injection, schedule: Q04DX002 (ip), vehicle: Klucel (hydroxypropylcellulose) (HPC) 96 % of control | dose: 400.0 mg/kg/injection, schedule: Q04DX002 (ip), vehicle: Klucel (hydroxypropylcellulose) (HPC) 93 % of control

Cc1cc(O)c(C(C)C)cc1NC(=O)C(Cl)Cl
inactive: [7] 98 % of control | [8] 101 % of control | [9] 107 % of control

CC(=O)NC1C(Nc2ccc(S(=O)(=O)Nc3nccc(C)n3)cc2)OC(CO)C(O)C1O (centres undefined)
inactive: dose: 250.0 mg/kg/injection, schedule: Q01DX Z (ip), vehicle: methylcellulose (MC) 94 % of control | dose: 375.0 mg/kg/injection, schedule: Q01DX Z (ip), vehicle: methylcellulose (MC) 93 % of control | dose: 500.0 mg/kg/injection, schedule: Q01DX Z (ip), vehicle: methylcellulose (MC) 102 % of control

CCCCCCCCCCCCCCCCOc1ccc(S(=O)(=O)Nc2cc(C(=O)OC)cc(C(=O)OC)c2)cc1N
inactive: [10] 97 % of control | [11] 90 % of control | [12] 90 % of control

CCCCCCCCCCCCCCCCC/C=N\N=C(N)N
inactive: dose: 15.0 mg/kg/injection, schedule: Q01DX Z (ip), vehicle: carboxymethylcellulose (CMC) 101 % of control | dose: 30.0 mg/kg/injection, schedule: Q01DX Z (ip), vehicle: carboxymethylcellulose (CMC) 96 % of control | dose: 60.0 mg/kg/injection, schedule: Q01DX Z (ip), vehicle: carboxymethylcellulose (CMC) 90 % of control | dose: 60.0 mg/kg/injection, schedule: Q01DX Z (oral), vehicle: carboxymethylcellulose (CMC) 106 % of control | dose: 120.0 mg/kg/injection, schedule: Q01DX Z (ip), vehicle: carboxymethylcellulose (CMC) 104 % of control | dose: 120.0 mg/kg/injection, schedule: Q01DX Z (oral), vehicle: carboxymethylcellulose (CMC) 110 % of control | dose: 240.0 mg/kg/injection, schedule: Q01DX Z (oral), vehicle: carboxymethylcellulose (CMC) 118 % of control | dose: 480.0 mg/kg/injection, schedule: Q01DX Z (oral), vehicle: carboxymethylcellulose (CMC) 118 % of control

CC(C)C(CN)(CCCN1CCCC1)c1cccc2ccccc12 (centres undefined)
inactive: [10] 102 % of control

O=C(O)CCCc1ccc2sc3ccccc3c2c1
inactive: dose: 100.0 mg/kg/injection, schedule: Q01DX001 (ip), vehicle: saline with Tween-80 100 % of control | dose: 200.0 mg/kg/injection, schedule: Q01DX001 (ip), vehicle: saline with Tween-80 101 % of control

O=Cc1ccc(/C=C2\NC(=O)NC2=O)cc1
inactive: dose: 25.0 mg/kg/injection, schedule: Q01DX009 (ip), vehicle: water 90 % of control | dose: 50.0 mg/kg/injection, schedule: Q01DX009 (ip), vehicle: water 92 % of control | dose: 100.0 mg/kg/injection, schedule: Q01DX009 (ip), vehicle: water 96 % of control | dose: 200.0 mg/kg/injection, schedule: Q01DX009 (ip), vehicle: water 93 % of control

O=[N+]([O-])c1ccc(S(=O)CCCl)c([N+](=O)[O-])c1 (centres undefined)
inactive: dose: 6.25 mg/kg/injection, schedule: Q04DX003 (ip), vehicle: saline 96 % of control | dose: 12.5 mg/kg/injection, schedule: Q04DX003 (ip), vehicle: saline 97 % of control | dose: 25.0 mg/kg/injection, schedule: Q04DX003 (ip), vehicle: saline with Tween-80 100 % of control | dose: 25.0 mg/kg/injection, schedule: Q04DX003 (ip), vehicle: saline 97 % of control

O=S(=O)(NO)c1ccc(Cl)cc1
inactive: dose: 50.0 mg/kg/injection, schedule: Q01DX009 (ip), vehicle: saline sonified 98 % of control | [1] 91 % of control | [2] 98 % of control | [3] 95 % of control | [4] 94 % of control
